Laboratory results from patent US11414398B2, “Selective organic cation transporters inhibitors for the treatment of depressive disorders” (priority 2017, dated 2022).

Assays:
alpha 1D adrenoceptors = biological target: T1, alpha 1D adrenoceptors (Homo sapiens, UniProt P25100); assay: Displacement of [3H]Prazosin binding in CHO cells (Eurofins); conditions: 0.2 nM [3H]Prazosin, 60 min, 22° C., human recombinant, read-out: inhibition of binding of specific ligand
T1 construct: host or cells: CHO cells
T1 sequence (P25100 1-572): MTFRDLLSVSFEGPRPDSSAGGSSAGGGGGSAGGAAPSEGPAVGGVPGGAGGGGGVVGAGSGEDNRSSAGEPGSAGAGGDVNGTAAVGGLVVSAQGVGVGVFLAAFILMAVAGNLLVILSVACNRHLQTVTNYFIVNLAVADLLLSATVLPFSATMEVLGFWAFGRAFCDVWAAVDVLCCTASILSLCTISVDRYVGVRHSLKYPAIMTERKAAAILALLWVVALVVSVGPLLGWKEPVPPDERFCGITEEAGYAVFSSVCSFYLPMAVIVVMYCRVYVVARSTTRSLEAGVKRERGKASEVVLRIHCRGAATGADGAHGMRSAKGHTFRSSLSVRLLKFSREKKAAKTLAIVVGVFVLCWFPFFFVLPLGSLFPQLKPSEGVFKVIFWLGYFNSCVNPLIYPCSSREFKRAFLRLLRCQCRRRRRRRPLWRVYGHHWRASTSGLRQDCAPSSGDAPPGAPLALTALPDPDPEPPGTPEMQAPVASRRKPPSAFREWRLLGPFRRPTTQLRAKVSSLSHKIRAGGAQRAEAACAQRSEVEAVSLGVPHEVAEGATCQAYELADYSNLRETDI
Description: (§1) Method. The displacement by compound (II-1) of binding of selective ligands of alpha adrenergic receptors 1D and 2C (0.2 nM [^3H]Prazosin and 2 nM [^3H]RX 821002, respectively) was evaluated for 60 min at 22° C. in CHO cells expressing the human recombinant adrenoceptors (Eurofins).

human OCT2 = biological target: T2, human OCT2 (Homo sapiens, UniProt O15244); assay: OCT inhibition in transfected cells ([3H]ASP+ uptake); type: cell-based
T2 construct: expressed in transfected cells; host or cells: COS cells
T2 sequence (O15244 1-555): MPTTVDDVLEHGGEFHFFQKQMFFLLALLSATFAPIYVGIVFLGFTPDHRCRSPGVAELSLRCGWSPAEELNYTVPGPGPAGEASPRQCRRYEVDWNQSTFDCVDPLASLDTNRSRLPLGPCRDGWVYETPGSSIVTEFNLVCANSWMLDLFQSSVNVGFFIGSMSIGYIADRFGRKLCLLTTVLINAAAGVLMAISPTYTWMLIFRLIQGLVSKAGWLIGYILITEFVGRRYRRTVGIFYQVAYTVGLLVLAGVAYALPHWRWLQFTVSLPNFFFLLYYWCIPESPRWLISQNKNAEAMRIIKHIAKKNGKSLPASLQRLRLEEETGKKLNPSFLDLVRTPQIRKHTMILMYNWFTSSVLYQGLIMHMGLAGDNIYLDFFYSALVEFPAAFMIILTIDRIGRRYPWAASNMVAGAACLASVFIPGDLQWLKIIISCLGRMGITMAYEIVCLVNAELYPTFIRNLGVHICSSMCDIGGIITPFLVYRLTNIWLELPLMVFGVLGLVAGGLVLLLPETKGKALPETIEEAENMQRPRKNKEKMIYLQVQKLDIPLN
From the text: Method. […] Tested concentrations: 1.10^−9; 3.10^−9; 1.10^−8; 3.10^−8; 1.10^−7; 3.10^−7; 1.10^−6; 3.10^−6 mol·L^−1.

alpha 2C adrenoceptors = biological target: T3, alpha 2C adrenoceptors (Homo sapiens, UniProt P18825); assay: Displacement of [3H]RX 821002 binding in CHO cells (Eurofins); conditions: 2 nM [3H]RX 821002, 60 min, 22° C., human recombinant, read-out: inhibition of binding of specific ligand
T3 construct: host or cells: CHO cells
T3 sequence (P18825 1-462): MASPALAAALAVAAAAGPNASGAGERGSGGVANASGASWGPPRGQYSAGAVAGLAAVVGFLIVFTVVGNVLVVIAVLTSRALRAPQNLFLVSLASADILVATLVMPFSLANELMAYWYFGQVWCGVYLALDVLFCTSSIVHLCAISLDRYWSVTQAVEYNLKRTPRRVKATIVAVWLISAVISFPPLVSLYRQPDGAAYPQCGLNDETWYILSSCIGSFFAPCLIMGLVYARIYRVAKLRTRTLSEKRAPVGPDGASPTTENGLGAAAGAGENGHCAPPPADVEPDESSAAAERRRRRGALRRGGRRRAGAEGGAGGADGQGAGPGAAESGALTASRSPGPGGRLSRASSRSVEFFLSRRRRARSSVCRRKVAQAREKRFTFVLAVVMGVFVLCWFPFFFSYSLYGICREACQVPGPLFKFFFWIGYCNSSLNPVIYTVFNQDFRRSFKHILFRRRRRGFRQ
Description: as §1

In the case of `COc1ccc2c(c1)C=C/C(=C/c1cc[n+](C(C)C)c3ccccc13)N2C(C)C.[I-]` [II-1, (Z)-1-isopropyl-4-((1-isopropyl-6-methoxyquinolin-2(1H)-ylidene)methyl)quinolin-1-ium iodide], the inhibition at 1 µM (alpha 1D adrenoceptors) is reported as 69%, the “IC50 less than that of D24 on human and rodent OCTs” value (human OCT2; hOCT2 IC50 versus literature D24 value) is reported as 3 to 4 fold and the IC50 (human OCT2; uptake of [3H]ASP+ (5 μM) in COS cells transfected with human OCT2, 20 min, 37° C.) is reported as 0.082 µM. The inhibition at 1 µM (alpha 2C adrenoceptors) was 66%.
